Measurements: PubChem BioAssay AID2060622 (Molecular Pharmacology Branch, DTP, NCI, 2025)

Tested on: 242566-281-R-J2-PDC complex spheroid viability
Assay: Anticancer human tumor 242566-281-R-J2-PDC patient-derived pancreatic carcinoma cell line growth inhibition [CLK]
Conditions: for IC50: curve of first compound; for viability, T/C: stronger effect = lower value
Procedure, shortened: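 Multi-cell-type spheroids combined patient-derived tumor cells with HUVEC endothelial cells and human mesenchymal stem cells. Paired agents were dosed in half-log steps down from about clinical Cmax, or from 10 microM where Cmax was unknown.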

[1] = second compound 0.0316 µM, first compound 0.0316 µM
[2] = second compound 0.0316 µM, first compound 0.1 µM
[3] = second compound 0.0316 µM, first compound 0.316 µM
[4] = second compound 0.0316 µM, first compound 1 µM
[5] = second compound 0.0316 µM, first compound 3.16 µM
[6] = second compound 0.0316 µM, first compound 10 µM
[7] = second compound 0.1 µM, first compound 0.0316 µM
[8] = second compound 0.1 µM, first compound 0.1 µM
[9] = second compound 0.1 µM, first compound 0.316 µM
[10] = second compound 0.1 µM, first compound 1 µM
[11] = second compound 0.1 µM, first compound 3.16 µM
[12] = second compound 0.1 µM, first compound 10 µM
[13] = second compound 0.316 µM, first compound 0.0316 µM
[14] = second compound 0.316 µM, first compound 0.1 µM
[15] = second compound 0.316 µM, first compound 0.316 µM
[16] = second compound 0.316 µM, first compound 1 µM
[17] = second compound 0.316 µM, first compound 3.16 µM
[18] = second compound 0.316 µM, first compound 10 µM
[19] = second compound 1 µM, first compound 0.0316 µM
[20] = second compound 1 µM, first compound 0.1 µM
[21] = second compound 1 µM, first compound 0.316 µM
[22] = second compound 1 µM, first compound 1 µM
[23] = second compound 1 µM, first compound 3.16 µM
[24] = second compound 1 µM, first compound 10 µM
[25] = second compound 3.16 µM, first compound 0.0316 µM
[26] = second compound 3.16 µM, first compound 0.1 µM
[27] = second compound 3.16 µM, first compound 0.316 µM
[28] = second compound 3.16 µM, first compound 1 µM
[29] = second compound 3.16 µM, first compound 3.16 µM
[30] = second compound 3.16 µM, first compound 10 µM
[31] = second compound 10 µM, first compound 0.0316 µM
[32] = second compound 10 µM, first compound 0.1 µM
[33] = second compound 10 µM, first compound 0.316 µM
[34] = second compound 10 µM, first compound 1 µM
[35] = second compound 10 µM, first compound 3.16 µM
[36] = second compound 10 µM, first compound 10 µM
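Also: spheroids exposed to compounds for 7 days before readout.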
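For viability, T/C in this document: 100% = DMSO vehicle control wells.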

In the case of CC(CO)NC(=O)c1cc(-c2ccc(Cl)cc2)nn(-c2cnn(C)c2)c1=O (stereo unspecified) + CNC(=O)c1ccc(Nc2nc(OC3CCCC3)c3c(-c4ccc5nc(C)oc5c4)c[nH]c3n2)c(OC)c1, the IC50 (second compound 0.0316 µM) is reported as over 10000 nM, the IC50 (second compound 0.1 µM) is reported as over 10000 nM and the IC50 (second compound 0.316 µM) is reported as over 10000 nM. The IC50 (second compound 1 µM) was over 10000 nM, the IC50 (second compound 3.16 µM) was over 10000 nM and the IC50 (second compound 10 µM) was over 10000 nM. It also gave a viability, T/C [1] of 112%, a viability, T/C [2] of 105% and a viability, T/C [3] of 103%. For the same compound, the viability, T/C [4] was 124%, the viability, T/C [5] was 110% and the viability, T/C [6] was 104%. It also gave a viability, T/C [7] of 105%, a viability, T/C [8] of 107% and a viability, T/C [9] of 93%. It also gave a viability, T/C [10] of 102%, a viability, T/C [11] of 103% and a viability, T/C [12] of 96.3%. For the same compound, the viability, T/C [13] was 96.1%, the viability, T/C [14] was 90.7% and the viability, T/C [15] was 83.1%. The viability, T/C [16] was 95.9%, the viability, T/C [17] was 101% and the viability, T/C [18] was 86%. The viability, T/C [19] was 76%, the viability, T/C [20] was 65% and the viability, T/C [21] was 75.6%. For the same compound, the viability, T/C [22] was 79.2%, the viability, T/C [23] was 86.2% and the viability, T/C [24] was 89.4%. It also gave a viability, T/C [25] of 60.1%, a viability, T/C [26] of 62.5% and a viability, T/C [27] of 59.1%. For the same compound, the viability, T/C [28] was 58.9%, the viability, T/C [29] was 63% and the viability, T/C [30] was 69.2%. For the same compound, the viability, T/C [31] was 55.6%, the viability, T/C [32] was 55.8% and the viability, T/C [33] was 54.1%. It also gave a viability, T/C [34] of 58.8%, a viability, T/C [35] of 62.7% and a viability, T/C [36] of 70.2%.

For CC(Nc1ccc2c(c1)OCCn1cc(N3C(=O)OCC3C(F)F)nc1-2)C(N)=O (stereo unspecified) + CNC(=O)c1ccc(Nc2nc(OC3CCCC3)c3c(-c4ccc5nc(C)oc5c4)c[nH]c3n2)c(OC)c1, the IC50 (second compound 0.0316 µM) was 2140 nM, the IC50 (second compound 0.1 µM) was 1770 nM and the IC50 (second compound 0.316 µM) was 690 nM. It also gave an IC50 (second compound 1 µM) of 92.4 nM, an IC50 (second compound 3.16 µM) of under 31.6 nM and an IC50 (second compound 10 µM) of under 31.6 nM. The viability, T/C [1] was 84.6%, the viability, T/C [2] was 91.4% and the viability, T/C [3] was 75.9%. The viability, T/C [4] was 62.4%, the viability, T/C [5] was 44.4% and the viability, T/C [6] was 30.6%. The viability, T/C [7] was 100%, the viability, T/C [8] was 96.5% and the viability, T/C [9] was 70.4%. It also gave a viability, T/C [10] of 62.2%, a viability, T/C [11] of 40.3% and a viability, T/C [12] of 28.2%. The viability, T/C [13] was 82.3%, the viability, T/C [14] was 77.6% and the viability, T/C [15] was 59.6%. It also gave a viability, T/C [16] of 44%, a viability, T/C [17] of 32.8% and a viability, T/C [18] of 21.6%. For the same compound, the viability, T/C [19] was 63.9%, the viability, T/C [20] was 47.2% and the viability, T/C [21] was 38.5%. The viability, T/C [22] was 26.8%, the viability, T/C [23] was 19.8% and the viability, T/C [24] was 14.2%. The viability, T/C [25] was 44.4%, the viability, T/C [26] was 32.9% and the viability, T/C [27] was 27.5%. It also gave a viability, T/C [28] of 22.8%, a viability, T/C [29] of 15.7% and a viability, T/C [30] of 11.6%. The viability, T/C [31] was 41%, the viability, T/C [32] was 33.6% and the viability, T/C [33] was 28.2%. It also gave a viability, T/C [34] of 20.3%, a viability, T/C [35] of 15.1% and a viability, T/C [36] of 10.6%.

COc1c(OCCCN2CCOCC2)ccc2c3n(c(=NC(=O)c4cnc(N)nc4)nc12)CCN3 + CNC(=O)c1ccc(Nc2nc(OC3CCCC3)c3c(-c4ccc5nc(C)oc5c4)c[nH]c3n2)c(OC)c1 gave an IC50 (second compound 0.0316 µM) of 50.9 nM, an IC50 (second compound 0.1 µM) of 52 nM and an IC50 (second compound 0.316 µM) of 29 nM. The IC50 (second compound 1 µM) was 8.6 nM, the IC50 (second compound 3.16 µM) was under 3.16 nM and the IC50 (second compound 10 µM) was under 3.16 nM. It also gave a viability, T/C (second compound 0.0316 µM, first compound 0.00316 µM) of 104%, a viability, T/C (second compound 0.0316 µM, first compound 0.01 µM) of 86.1% and a viability, T/C [1] of 64.7%. The viability, T/C [2] was 31.1%, the viability, T/C [3] was 19.5% and the viability, T/C [4] was 14.2%. The viability, T/C (second compound 0.1 µM, first compound 0.00316 µM) was 72.9%, the viability, T/C (second compound 0.1 µM, first compound 0.01 µM) was 98.3% and the viability, T/C [7] was 64.4%. It also gave a viability, T/C [8] of 29.2%, a viability, T/C [9] of 18.8% and a viability, T/C [10] of 14.4%. The viability, T/C (second compound 0.316 µM, first compound 0.00316 µM) was 81.4%, the viability, T/C (second compound 0.316 µM, first compound 0.01 µM) was 70.9% and the viability, T/C [13] was 48.8%. For the same compound, the viability, T/C [14] was 23.9%, the viability, T/C [15] was 15.1% and the viability, T/C [16] was 10.7%. The viability, T/C (second compound 1 µM, first compound 0.00316 µM) was 61.5%, the viability, T/C (second compound 1 µM, first compound 0.01 µM) was 47% and the viability, T/C [19] was 31.2%. It also gave a viability, T/C [20] of 14.6%, a viability, T/C [21] of 9.5% and a viability, T/C [22] of 10.9%. The viability, T/C (second compound 3.16 µM, first compound 0.00316 µM) was 42.9%, the viability, T/C (second compound 3.16 µM, first compound 0.01 µM) was 33.5% and the viability, T/C [25] was 24.6%. It also gave a viability, T/C [26] of 12.5%, a viability, T/C [27] of 9.35% and a viability, T/C [28] of 10.2%. For the same compound, the viability, T/C (second compound 10 µM, first compound 0.00316 µM) was 39.3%, the viability, T/C (second compound 10 µM, first compound 0.01 µM) was 32.5% and the viability, T/C [31] was 25%. The viability, T/C [32] was 11.4%, the viability, T/C [33] was 8.81% and the viability, T/C [34] was 10.2%.
